Results from patent publication US20260374773A1, “MULTI-CYCLIC IRAK AND FLT3 INHIBITING COMPOUNDS AND USES THEREOF” (CHILDREN'S HOSPITAL MEDICAL CENTER, priority 2022, published 2026).

target: T1, FLT3 D835H (Homo sapiens, UniProt P36888, D835H); assay: DiscoverX KINOMEscan active site-directed competition binding, FLT3 D835H; conditions: Table 12; no ATP
T1 sequence (P36888 27-993 D835H): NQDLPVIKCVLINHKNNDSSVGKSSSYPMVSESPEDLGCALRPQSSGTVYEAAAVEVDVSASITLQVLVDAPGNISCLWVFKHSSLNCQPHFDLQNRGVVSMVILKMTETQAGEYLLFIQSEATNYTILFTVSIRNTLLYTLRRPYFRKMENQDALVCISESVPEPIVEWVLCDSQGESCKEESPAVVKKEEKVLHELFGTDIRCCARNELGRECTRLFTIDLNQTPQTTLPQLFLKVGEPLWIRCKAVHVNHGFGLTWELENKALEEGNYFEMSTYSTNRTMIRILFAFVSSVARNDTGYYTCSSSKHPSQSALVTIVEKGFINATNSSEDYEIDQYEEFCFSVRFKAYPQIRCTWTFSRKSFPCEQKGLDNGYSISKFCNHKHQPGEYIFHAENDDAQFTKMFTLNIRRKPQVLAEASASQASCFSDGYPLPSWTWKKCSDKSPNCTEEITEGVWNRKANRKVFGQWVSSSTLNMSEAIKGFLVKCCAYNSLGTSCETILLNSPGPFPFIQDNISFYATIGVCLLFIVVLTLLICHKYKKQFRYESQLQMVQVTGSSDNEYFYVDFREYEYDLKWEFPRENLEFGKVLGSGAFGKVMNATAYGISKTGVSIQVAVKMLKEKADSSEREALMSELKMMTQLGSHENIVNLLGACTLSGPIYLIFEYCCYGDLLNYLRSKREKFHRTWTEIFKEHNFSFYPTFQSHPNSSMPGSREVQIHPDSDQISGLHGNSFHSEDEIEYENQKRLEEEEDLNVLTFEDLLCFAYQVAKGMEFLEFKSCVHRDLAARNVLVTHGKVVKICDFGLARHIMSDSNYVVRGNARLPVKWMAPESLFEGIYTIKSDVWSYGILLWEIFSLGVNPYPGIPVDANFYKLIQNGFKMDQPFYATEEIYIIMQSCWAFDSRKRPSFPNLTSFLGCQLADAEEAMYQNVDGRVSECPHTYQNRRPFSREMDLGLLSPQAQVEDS
From the text: (§1) Kinase binding data were obtained for various exemplary compounds prepared according to Examples 1-8 using the DiscoverX KINOMEscan® active site-directed competition binding site-directed assay protocol described below. […] As a result, the data report thermodynamic interaction affinities (Kd values), rather than IC50 values that are dependent on ATP concentrations. The assay uses a DNA-tagged version of the protein kinase, and an immobilized ligand bound to a solid support. Compounds that directly or indirectly prevent kinase binding to the immobilized ligand reduce the amount of kinase captured on the solid support, which is detected using an ultra-sensitive qPCR method. Affinity constants reported from the assay have been reported to be independent of the immobilized ligand used that is coupled to the solid support (See supplemental information in Fabian, M. A. et. al., (2005) Nat. Biotechnol. 23, 329-336; Wodicka, L. M. et. al., (2010) Chem. Biol. 17, 1241-1249.)
Kinase-tagged T7 phage strains were prepared in an E. coli host derived from the BL21 strain. E. coli were grown to log-phase and infected with T7 phage and incubated with shaking at 32 °C until lysis. The lysates were centrifuged and filtered to remove cell debris. The remaining kinases were produced in HEK-293 cells and subsequently tagged with DNA for qPCR detection. Streptavidin-coated magnetic beads were treated with biotinylated small molecule ligands for 30 minutes at room temperature to generate affinity resins for kinase assays. The liganded beads were blocked with excess biotin and washed with blocking buffer (SeaBlock (Pierce), 1% BSA, 0.05% Tween 20, 1 mM DTT) to remove unbound ligand and to reduce non-specific binding. […] Test compounds were prepared as 111x stocks in 100% DMSO. Kds were determined using an 11-point 3-fold compound dilution series with three DMSO control points. All compounds for Kd measurements are distributed by acoustic transfer (non-contact dispensing) in 100% DMSO. The compounds were then diluted directly into the assays such that the final concentration of DMSO was 0.9%. All reactions were performed in polypropylene 384-well plates. Each was a final volume of 0.02 mL. The assay plates were incubated at room temperature with shaking for 1 hour and the affinity beads were washed with wash buffer (1×PBS, 0.05% Tween 20). The beads were then re-suspended in elution buffer (1×PBS, 0.05% Tween 20, 0.5 μM nonbiotinylated affinity ligand) and incubated at room temperature with shaking for 30 minutes. The kinase concentration in the eluates was measured by qPCR. Binding constants (Kds) were calculated with a standard dose-response curve using the Hill equation. The Hill Slope was set to −1. Curves were fitted using a non-linear least square fit with the Levenberg-Marquardt algorithm.
as §1, with “9-12” for “1-8”
Kinase-tagged T7 phage strains were prepared in an E. coli host derived from the BL21 strain. […]

Row | Kd | Structure (SMILES)
1 | 0.18 nM | COc1cn2ncc(-c3nc(N[C@H]4CNCC[C@@H]4F)c(C#N)cc3F)c2nc1C1CC1 [Compound 7, 6-(5-cyclopropyl-6-methoxypyrazolo[1,5-a]pyrimidin-3-yl)-5-fluoro-2-(((3S,4S)-4-fluoropiperidin-3-yl)amino)nicotinonitrile]
2 | 0.2 nM | COc1cn2ncc(-c3nc(N[C@H]4CNCC[C@@H]4F)c(C#N)cc3F)c2nc1C(C)(C)O [Compound 10, 5-fluoro-2-(((3S,4S)-4-fluoropiperidin-3-yl)amino)-6-(5-(2-hydroxypropan-2-yl)-6-methoxypyrazolo[1,5-a]pyrimidin-3-yl)nicotinonitrile]
3 | < 0.17 nM | COc1cn2ncc(-c3nc(N[C@H]4CNCC[C@@H]4F)c(F)cc3F)c2nc1C(C)(C)O [Compound 13, 2-(3-(3,5-difluoro-6-(((3S,4S)-4-fluoropiperidin-3-yl)amino)pyridin-2-yl)-6-methoxypyrazolo[1,5-a]pyrimidin-5-yl)propan-2-ol]

same assay, conditions: Table 18; no ATP

Row | Structure (SMILES) | Kd
4 | COc1cn2ncc(-c3ccnc(N[C@H]4CNCC[C@@H]4F)n3)c2nc1C1CC1 [Compound 7a, 4-(5-cyclopropyl-6-methoxypyrazolo[1,5-a]pyrimidin-3-yl)-N-((3S,4S)-4-fluoropiperidin-3-yl)pyrimidin-2-amine] | 1.2 nM
5 | COc1cn2ncc(-c3cncc(N[C@H]4CNCC[C@@H]4F)n3)c2nc1C1CC1 [Compound 12a, 6-(5-cyclopropyl-6-methoxypyrazolo[1,5-a]pyrimidin-3-yl)-N-((3S,4S)-4-fluoropiperidin-3-yl)pyrazin-2-amine] | 0.54 nM

Now from value to compound:

Row | Kd | Structure (SMILES)
6 | 0.25 nM | COc1cn2ncc(-c3nc(N[C@H]4CNCC[C@@H]4F)ncc3F)c2nc1C(C)(C)O [Compound 6a, 2-(3-(5-fluoro-2-(((3S,4S)-4-fluoropiperidin-3-yl)amino)pyrimidin-4-yl)-6-methoxypyrazolo[1,5-a]pyrimidin-5-yl)propan-2-ol]
7 | 0.2 nM | COc1cn2ncc(-c3nc(N[C@@H]4CCCNC4)ncc3F)c2nc1C1CC1 [Compound 14a, (R)-4-(5-cyclopropyl-6-methoxypyrazolo[1,5-a]pyrimidin-3-yl)-5-fluoro-N-(piperidin-3-yl)pyrimidin-2-amine]
8 | 0.37 nM | COc1cn2ncc(-c3nc(N[C@H]4CNCC[C@@H]4F)ncc3F)c2nc1C1CC1 [Compound 15a, 4-(5-cyclopropyl-6-methoxypyrazolo[1,5-a]pyrimidin-3-yl)-5-fluoro-N-((3S,4S)-4-fluoropiperidin-3-yl)pyrimidin-2-amine]
